Laboratory results: patent US20050282745A1, “Non-mammalian GnRH analogs and uses thereof in regulation of fertility and pregnancy” (priority 2001, published 2005)
Where two headings read alike, the source gives them in different places.

How the values were obtained:
[1] = system: human placental GnRH receptor; experiment: Placental GnRH receptor binding, 125I-Buserelin label
Experimental: The newly synthesized non-mammalian GnRH analogs and other commercially available mammalian GnRH analogs were used in placental receptors binding and enzyme stability study described here. […] GnRH receptors were purified from the membrane fractions from placentas. The purification procedure for the placental GnRH receptor was performed using a modification of the method described by Bramley et al., which reference is specifically incorporated herein by reference for the purpose. Addition of enzyme inhibitors for the endogenous C-ase-1 were used as well as agents for receptor stabilization. Initially, receptor-binding assays using ^125I-Buserelin as label were performed. The competitive binding of each of the analogs was studied over a dose range of 10^−11 to 10^−6 M. Incubation was at room temperature and receptor bound label was precipitated with polyethylene glycol. Specific and non-specific binding was determined. The data was subjected to Scatchard analysis. The non-mammalian GnRH analogs' ability to bind to the placental GnRH receptor was compared to that for synthetic mammalian GnRH (SEQ ID NO: 5), Buserelin (SEQ ID NO: 10) and other mammalian analogs. […] This way, the receptor affinity for that analog could be precisely determined. Receptors from three different term placentas were used to study each of these analogs. […] Bramley T A, McPhie C A, Menzies G S 1994 Human placental gonadotropin-releasing hormone (GnRH) binding sites: 111. […] Placenta 15:733-745.
In these and additional studies, placental GnRH receptors were purified from human term placentas after homogenization in 40 mM Tris (pH 7.4) and filtered through cheesecloth, followed by an initial centrifugation at 1,000×g for 10 minutes. The resulting supernatant was, again, centrifuged at 35,000×g for 30 minutes and the membrane pellet was collected and resuspended in Tris buffer with 0.3 M sucrose. The protein concentration was determined. Membranes were stored frozen at −20 C until use. Before use, placental membranes were diluted to 5,000 μg/mL with Tris buffer containing 0.5% BSA and 50 U/mL bacitracin. […] Following incubation at room temperature for 4 hours, the bound and free hormones were separated using polyethylene glycol precipitation, followed by centrifugation. The binding affinity for each GnRH isoform or analog was calculated using the double reciprocal plot of bound versus free ligand. Each study was done using three different human term placental tissues.
Receptor assays were performed by incubating human term placental GnRH receptors with varying concentrations of GnRH or its analogs in the presence of ^125I-Buserelin. The reaction was stopped and the bound hormone precipitated with polyethylene glycol.

[2] = system: early human placental explants; experiment: Placental explant perifusion, hCG release; type: cell-based
From the text: Placental tissues that are normally discarded were obtained from unidentified patients following first trimester pregnancy termination (early human placental explants). Tissue fragments, dissected of vessels and membranes, were placed in a perfusion system for study of 20 replicate chambers of the same tissue. This allows for simultaneous dose-response studies to be performed. To achieve this specific aim, explants from a given placenta were placed in 20 replicate chambers and perfused with basal medium for three hours at a rate of 6 ml/hr (dead volume of the system at 6 ml/hr is ten minutes). After three hours of equilibration, the analog was added to the basal perfusing medium. Quaduplicate chambers were made for chicken II GnRH analog (SEQ ID NO: 2) at 0, 10^−9, 10^−8, 10^−7, 10^−6 M and Buserelin (SEQ ID NO: 10) at 10^−7 M. The effluent medium of each chamber was collected after a three hour equilibration period. Two basal samples, at half hour intervals were collected, media with test substances was initiated and effluent medium collection continued for four and one half hours at thirty minute intervals. The hCG release was analyzed in each of these experiments. FIGS. 16 and 17 illustrate a typical response. […] Maximal response was observed within minutes after initiation of perfusion at 10^−8 M, with possible down regulation beginning after five hours at 10^−6 M as illustrated in FIG. 18.
In additional experiments, early gestation human placentas were perfused for six hours with medium supplemented with estradiol, progesterone, bovine serum albumin, and antibiotics (basal medium). Twenty replicate chambers were perifused with basal medium for two hours, then triplicate chambers were perifused with the medium containing either Buserelin (SEQ ID NO: 10), or 10^−9, 10^−8, 10^−7, 10^−6 M of a chicken II GnRH analog (SEQ ID NO: 2), leaving five control chambers. The eluted medium was collected at thirty minute intervals, starting one hour prior to the addition of GnRH analogs and throughout five hours of treatment. hCG released into the effluent media, as well as the production of GnRH, were measured using sensitive and specific radioimmunoassays. The release of hCG at each time point was normalized to its zero treatment release and the release throughout the treatment period and its average release was compared for various treatment regimens. These studies were repeated using tissues from three different first trimester placentas. The results of this experiment are illustrated in FIG. 20.

[3] = system: baboon granulosa cells; experiment: Baboon granulosa cell culture, progesterone release; type: cell-based; details: chicken II analog 10^−9 to 10^−6 M; Buserelin 10^−7
From the text: The biopotency of chicken II GnRH analogs (SEQ ID NO: 2) in the regulation of baboon ovarian function was studied. The effect of mammalian and chicken II GnRH analogs (SEQ ID NO: 2) on ovarian progesterone release was studied using granulosa cell cultures. The dose-related action of a stable analog of chicken II GnRH (SEQ ID NO: 2) on progesterone production was defined using baboon granulosa cell cultures. After a two hour basal study period, the medium was supplemented with either Buserilin (SEQ ID NO: 10) (10^−7) or a chicken II GnRH analog (SEQ ID NO: 2) (10^−9, 10^−8, 10^−7, 10^−6 M) leaving four control wells. […] This inhibition was sustained after 48 hours of treatment. […] In addition, the action of the analog on three different stromal and three different epithelial endometrial primary cell lines (after 3-5 passages) has been studied and PGE2 determined as indicated in FIG. 31.

[4] = target: placental GnRH receptor; experiment: Mean
From the text: Table printed on a drawing sheet, Fig. 1
The patent's description of the figure: FIG. 1. Placental Kds for Chicken II and Mammalian GnRH Analogs
First copying reader's note: Each column is one GnRH analog; the rows are Kd values in individual placentas, followed by the mean and SEM.
Where the first naming reader finds the target: passage: the affinity for the placental GnRH receptor was enhanced 2 fold

[5] = system: chorionic peptidase-1 (C-ase-1); experiment: C-ase-1 enzyme activity assay, competition for degradation of GnRH
Experimental: (§1) Using the incubation system developed for the C-ase-1 activity, the degradation of each analog was tested. […] These studies were done using the C-ase-1 enzyme activity assay as described previously. […] The product formed was calculated by subtraction, and its inverse plotted against the inverse of the original substrate concentrations to determine the nature of the competition. The Ki was to be determined by plotting the inverse of the product that formed verses the inhibitor used.
(§2) The concentration of the product of the degraded GnRH was quantified by subtracting the remaining mammalian GnRH from the starting concentrations of mammalian GnRH. […] The Ks for the degradation of mammalian GnRH was calculated from the x axis intercept using Lineweaver-Burke double reciprocal plot of the concentration of the product formed versus the concentration of the substrate used.
(§3) The reaction was stopped by heating at 85° C. for 10 minutes. The remaining GnRH was determined using a specific radioimmunoassay. The formation of product, i.e., the N-terminal nonapeptide of GnRH, was calculated by subtraction and its inverse was plotted versus the inverse of the initial substrate to determine the Ks of the reaction. […] The relative potency of each analog was compared.
(§4) Using the incubation system developed for the C-ase-1 activity, the degradation of each analog was studied. […] The inverse of the product was plotted against the inverse of the original substrate concentrations to determine Ks of the competition. The Ki was determined by plotting the inverse of the product formed verses the inhibitor used.

[6] = system: human placental GnRH receptor; experiment: Placental GnRH receptor binding, radiolabeled D-Arg(6)-chicken II GnRH-aza-Gly(10)-amide label; details: versus Buserelin label
Experimental: The newly synthesized non-mammalian GnRH analogs and other commercially available mammalian GnRH analogs were used in placental receptors binding and enzyme stability study described here. On the basis of these studies, the most receptor potent and enzyme-stable analogs were chosen for further biopotency studies. GnRH receptors were purified from the membrane fractions from placentas. The purification procedure for the placental GnRH receptor was performed using a modification of the method described by Bramley et al., which reference is specifically incorporated herein by reference for the purpose. Addition of enzyme inhibitors for the endogenous C-ase-1 were used as well as agents for receptor stabilization. Initially, receptor-binding assays using ^125I-Buserelin as label were performed. The competitive binding of each of the analogs was studied over a dose range of 10^−11 to 10^−6 M. Incubation was at room temperature and receptor bound label was precipitated with polyethylene glycol. Specific and non-specific binding was determined. The data was subjected to Scatchard analysis. The non-mammalian GnRH analogs' ability to bind to the placental GnRH receptor was compared to that for synthetic mammalian GnRH (SEQ ID NO: 5), Buserelin (SEQ ID NO: 10) and other mammalian analogs. […] This way, the receptor affinity for that analog could be precisely determined. Receptors from three different term placentas were used to study each of these analogs. […] Bramley T A, McPhie C A, Menzies G S 1994 Human placental gonadotropin-releasing hormone (GnRH) binding sites: 111. Changes in GnRH binding levels with stage of gestation. Placenta 15:733-745.
In these and additional studies, placental GnRH receptors were purified from human term placentas after homogenization in 40 mM Tris (pH 7.4) and filtered through cheesecloth, followed by an initial centrifugation at 1,000×g for 10 minutes. The resulting supernatant was, again, centrifuged at 35,000×g for 30 minutes and the membrane pellet was collected and resuspended in Tris buffer with 0.3 M sucrose. The protein concentration was determined. Membranes were stored frozen at −20 C until use. Before use, placental membranes were diluted to 5,000 μg/mL with Tris buffer containing 0.5% BSA and 50 U/mL bacitracin. Placental membranes (100 μL) were used with varying concentrations of mammalian GnRH (SEQ ID NO: 5), Buserelin (SEQ ID NO: 10), chicken II GnRH (SEQ ID NO: 6), D-Arg (6)-chicken II GnRH-des-Gly (10)-ethylamide (SEQ ID NO: 2), or D-Arg (6)-chicken II GnRH-aza-Gly (10)-amide (SEQ ID NO: 2) (100 μL) and either radiolabeled Buserelin (SEQ ID NO: 10) or radiolabeled D-Arg (6)-chicken II GnRH-aza-Gly (10)-amide (SEQ ID NO: 2) (100 μL/tube and iodinated). Following incubation at room temperature for 4 hours, the bound and free hormones were separated using polyethylene glycol precipitation, followed by centrifugation. The binding affinity for each GnRH isoform or analog was calculated using the double reciprocal plot of bound versus free ligand. Each study was done using three different human term placental tissues.

[7] = system: human term placental explants; experiment: Static explant culture, release of hCG, progesterone, PGE2; type: cell-based; details: 0.25-1.00 μM, four placentas
From the text: The biological activity of the newly synthesized non-mammalian GnRH analogs was studied using a static implant culture system. This system allows for inexpensive extended activity studies. Mammalian GnRH action on the human placenta release of hCG, progesterone and prostaglandins were defined using this system. Replicate cultures were studied, thus allowing for comparison of different doses of each non-mammalian GnRH analog to mammalian GnRH (SEQ ID NO: 5), as well as direct competition assays. […] These studies were repeated using different human placentas. Siler-Khodr T M, Khodr G S, Valenzuela G, Rhode J 1986 Gonadotropin-releasing hormone effects on placental hormones during gestation: II. Progesterone, estrone, estradiol and estriol. Biol Reprod 34:255-264; Siler-Khodr T M, Khodr G S, Valenzuela G, Rhode J 1986 Gonadotropin-releasing hormone effects on placental hormones during gestation: 1 Alpha-human chorionic gonadotropin, human chorionic gonadotropin and human chorionic somatomammotropin. Biol Reprod 34:245-254; Siler-Khodr T M, Khodr G S, Valenzuela G, Harper J, Rhode J 1986 GnRH effects on placental hormones during gestation. 111 Prostaglandin E, prostaglandin F, and 13, 14-dihydro-15-keto-prostaglandin F. Biol Reprod 35:312-319.
In these and additional studies, an explant culture system was used to determine the effect of mammalian GnRH (SEQ ID NO: 5), chicken II GnRH (SEQ ID NO: 6), or the D-Arg(6)-chicken II GnRH-aza-Gly(10)-amide analog (SEQ ID NO: 2) on the release of the hCG, progesterone, and prostaglandin E2. Human term placentas were dissected free of membranes, minced into fragments of 5 mm, rinsed in medium, and a total weight of ˜100 mg (20 explants) was placed on a sterile filter paper resting on an organ culture grid such that they touched the surface of the culture medium, but were not immersed in it. The medium contained penicillin, streptomycin, and fungizone at 100 U/mL, 100 μg/mL, and 2.5 μg/mL respectively with and without varying doses of GnRH isoforms or analogs was added to each Petri dish. Triplicate chambers for each media were made and incubated at 37 C in a humidified chamber with an atmosphere of 5% CO2 and 95% air. Spent media were collected and replaced after 2 hours, 24 hours, and 48 hour of culture and stored frozen at −20° C. until assayed for hormones. HCG, progesterone, and PGE2 were measured using specific double antibody procedures as described previously. The chicken II GnRH analog (SEQ ID NO: 2) was studied using four different human term placentas, and the native chicken II GnRH isoform was also studied using one human term placenta. Gibbons J M, Mitnick M, Chieffo V 1975 In vitro biosynthesis, of TSH- and LH-releasing factors by the human placenta. Am J Obstet Gynecol 121:127-131.

[8] = system: chorionic peptidase-1 (C-ase-1)
Experimental: as §1, §2, §3, §4

[9] = system: baboon ovarian enzymatic activity
Experimental: In these studies the enzyme was in the ovarian extract.
In this assay, following incubation of the enzyme and GnRH, with and without the chosen analog, the reaction was stopped by heating and the remaining GnRH substrate was quantified by radioimmunoassay. The product formed is calculated by subtraction, and its inverse plotted against the inverse of the original substrate concentrations to determine the nature of the competition. The Ki was determined by plotting the inverse of the product formed versus the inhibitor used.

[10] = system: chorionic peptidase-1 (C-ase-1); details: neutral pH; read-out: Km for degradation by C-ase-1; cited from earlier work

In the case of CCNC(=O)[C@@H]1CCCN1C(=O)[C@H](CCCNC(=N)N)NC(=O)[C@H](CC(C)C)NC(=O)[C@@H](COC(C)(C)C)NC(=O)[C@H](Cc1ccc(O)cc1)NC(=O)[C@H](CO)NC(=O)[C@H](Cc1c[nH]c2ccccc12)NC(=O)[C@H](Cc1cnc[nH]1)NC(=O)[C@@H]1CCC(=O)N1 [Buserelin], the “receptor activity/potency compared with GnRH” value ([1]; 125I-Buserelin, Example VI) is reported as “twice as active”, the “receptor binding potency compared with mammalian GnRH” value ([1]; Buserelin label, Example II) is reported as “three-fold more potent” and the hCG response ([2]; 10^−7 M) is reported as “small stimulation of hCG at early time points”. The “average stimulation of hCG release, relative to control tissues” value ([2]; throughout five hours of perifusion) was 150%, the “effect on progesterone release, in words” value [3] was “without significant effect” and the Kd [4] was 0.579 ± 0.084 µM. For the same compound, the “degradation by / competition for C-ase-1, in words” value [5] was “potent competitive inhibitors”, the “degradation/competition relative to mammalian GnRH” value ([5]; Example III) was “one fourth the rate” and the Ki ([5]; competition for degradation of mammalian GnRH, Example III) was 0.11 µM.
With CC(C)C[C@H](NC(=O)CNC(=O)[C@H](Cc1ccc(O)cc1)NC(=O)[C@H](CO)NC(=O)[C@H](Cc1c[nH]c2ccccc12)NC(=O)[C@H](Cc1cnc[nH]1)NC(=O)[C@@H]1CCC(=O)N1)C(=O)N[C@@H](CCCNC(=N)N)C(=O)N1CCC[C@H]1C(=O)NCC(N)=O [mammalian GnRH] the Kd ([1]; 125I-Buserelin, Example VI, read-out: Kd) was 1 µM, the “decrease of affinity when the analog is used as label” value [6] was 1.5 times and the “effect on progesterone release” value [7] was “not affected by mammalian GnRH (SEQ ID NO: 5) in two of four placentas, but in one placenta it was significantly increased and in the other was decreased”. For the same compound, the “effect on release of hCG” value [7] was “no significant effect”, the “degradation by / competition for C-ase-1, in words” value [8] was “actively degraded” and the “Ks for degradation by ovarian tissues” value [9] was ~30 nM. For the same compound, the Km [10] was 0.01 µM and the “Ks for degradation by C-ase-1” value ([5]; Lineweaver-Burke plot) was ~30 nM.
